Where “and” joins values, the source holds several entries; their conditions need not be identical. Identical values can stand only once.
How the values were obtained:
NaV1.7 = NaV1.7 (Homo sapiens, UniProt Q15858); assay: block of NaV1.7 (inactivated vs resting state); type: biochemical
Text: NaV1.7 is expressed primarily in the peripheral nervous system in both sensory and sympathetic neurons (Raymond, C. K., et al., op. cit.). Loss-of-function mutations in SCN9A (the gene encoding the alpha subunit of the NaV1.7 sodium channel) cause a human condition known as congenital indifference to pain characterized by an inability to perceive pain (Cox, J. J., et al., Nature (2006), 444:894-98; Goldberg, Y. P., et al., Clin Genet (2007), 71:311-9). Gain-of-function mutations in SCN9A are associated with inherited erythromelalgia (IEM) (Drenth, J. P., et al., J Invest Dermatology (2005), 124:1333-8), which is characterized by spontaneous or easily evoked severe pain. Furthermore, up to 29% of biopsy-proven cases of idiopathic small-fiber neuropathy manifesting mainly as distal severe pain (Faber, C. G., et al., Ann Neurol (2012), 71:26-39) are associated with gain-of-function NaV1.7 channel mutations.

[1] = minipig repeated dermal dosing: spiro-oxindole compound in plasma (LC-MS/MS); type: in vivo, Göttingen minipig; conditions: minipigs
Method: The study was carried out on minipigs to obtain information on plasma pharmacokinetics, tissue distribution and accumulation, excretion and metabolic profile of the spiro-oxindole compound after daily dermal administration of a pharmaceutical composition of the invention for 20 consecutive days followed by a single dose of [^14C]-spiro-oxindole compound Day 21.
Midazolam was administered on Days 0 and 20 to 3 male minipigs by bolus intravenous injection at a dose level 0.5 mg/kg.
The [^14C]-spiro-oxindole composition was prepared as follows:
Dosages of test formulations were applied with foil and spread using nitrile gloves to form a thin uniform layer to the treatment site.

[2] = domestic pig joint penetration study: concentration in liver tissue; type: in vivo
Method: This study was conducted to evaluate the joint penetration, systemic plasma exposure and tissue distribution of the spiro-oxindole compound in domestic pigs following topical administration of a pharmaceutical composition utilized in the methods of the invention. Fifteen female pigs were used in this study with three pigs in each group. Beginning on Day 1, a pharmaceutical composition of the invention was topically applied to the left radiocarpal joint (carpus) and tibiotarsal joint (hock) twice daily (bid) for 17 days (34 applications) for Groups 1-4 and once daily (qd) for 17 days (17 applications) for Group 5. Pre-dose blood samples (prior to morning dosing) was collected on Days 2, 7, 10, 14 and 17. A full pharmacokinetic sampling was performed on Day 17 (post am dosing) at the following time points: 1, 2, 4, 8 and 12 hr. On the day of necropsy, Day 18, blood was collected prior to euthanasia, each pig was humanely euthanized and dorsal skin and muscle, liver, kidney, heart, lung, brain, intestine, fat, ovaries, urinary bladder, sciatic nerve, and skin, muscle, synovial membrane, and synovial fluid from all 4 joints (2 treated, left carpus and hock, and 2 untreated, right carpus and hock) was collected.
The dose volume (μL/cm^2) for the test pharmaceutical compositions was 3.0 μL/cm^2 for Groups 1, 2, 3 and 5 and 1.0 μL/cm^2 for Group 4.
The following tissue samples were collected after euthanasia: • Dorsal skin and muscle (from the mid-back) • Liver—Left Medial Lobe • Kidney—Right • Heart • Lung—Right diaphragmatic lobe • Brain—Right cerebral hemisphere • Intestine—mid-jejunum • Duodenum (10-15 cm length) from all 6 animals in Groups 1 and 2 • Fat • Ovary—Right • Urinary bladder • Sciatic nerve from both legs • Skin, muscle underlying site of administration and synovial membrane of all 4 joints (treated left carpus and hock and untreated right carpus and hock)

Chain of NaV1.7 (Q15858 whole entry): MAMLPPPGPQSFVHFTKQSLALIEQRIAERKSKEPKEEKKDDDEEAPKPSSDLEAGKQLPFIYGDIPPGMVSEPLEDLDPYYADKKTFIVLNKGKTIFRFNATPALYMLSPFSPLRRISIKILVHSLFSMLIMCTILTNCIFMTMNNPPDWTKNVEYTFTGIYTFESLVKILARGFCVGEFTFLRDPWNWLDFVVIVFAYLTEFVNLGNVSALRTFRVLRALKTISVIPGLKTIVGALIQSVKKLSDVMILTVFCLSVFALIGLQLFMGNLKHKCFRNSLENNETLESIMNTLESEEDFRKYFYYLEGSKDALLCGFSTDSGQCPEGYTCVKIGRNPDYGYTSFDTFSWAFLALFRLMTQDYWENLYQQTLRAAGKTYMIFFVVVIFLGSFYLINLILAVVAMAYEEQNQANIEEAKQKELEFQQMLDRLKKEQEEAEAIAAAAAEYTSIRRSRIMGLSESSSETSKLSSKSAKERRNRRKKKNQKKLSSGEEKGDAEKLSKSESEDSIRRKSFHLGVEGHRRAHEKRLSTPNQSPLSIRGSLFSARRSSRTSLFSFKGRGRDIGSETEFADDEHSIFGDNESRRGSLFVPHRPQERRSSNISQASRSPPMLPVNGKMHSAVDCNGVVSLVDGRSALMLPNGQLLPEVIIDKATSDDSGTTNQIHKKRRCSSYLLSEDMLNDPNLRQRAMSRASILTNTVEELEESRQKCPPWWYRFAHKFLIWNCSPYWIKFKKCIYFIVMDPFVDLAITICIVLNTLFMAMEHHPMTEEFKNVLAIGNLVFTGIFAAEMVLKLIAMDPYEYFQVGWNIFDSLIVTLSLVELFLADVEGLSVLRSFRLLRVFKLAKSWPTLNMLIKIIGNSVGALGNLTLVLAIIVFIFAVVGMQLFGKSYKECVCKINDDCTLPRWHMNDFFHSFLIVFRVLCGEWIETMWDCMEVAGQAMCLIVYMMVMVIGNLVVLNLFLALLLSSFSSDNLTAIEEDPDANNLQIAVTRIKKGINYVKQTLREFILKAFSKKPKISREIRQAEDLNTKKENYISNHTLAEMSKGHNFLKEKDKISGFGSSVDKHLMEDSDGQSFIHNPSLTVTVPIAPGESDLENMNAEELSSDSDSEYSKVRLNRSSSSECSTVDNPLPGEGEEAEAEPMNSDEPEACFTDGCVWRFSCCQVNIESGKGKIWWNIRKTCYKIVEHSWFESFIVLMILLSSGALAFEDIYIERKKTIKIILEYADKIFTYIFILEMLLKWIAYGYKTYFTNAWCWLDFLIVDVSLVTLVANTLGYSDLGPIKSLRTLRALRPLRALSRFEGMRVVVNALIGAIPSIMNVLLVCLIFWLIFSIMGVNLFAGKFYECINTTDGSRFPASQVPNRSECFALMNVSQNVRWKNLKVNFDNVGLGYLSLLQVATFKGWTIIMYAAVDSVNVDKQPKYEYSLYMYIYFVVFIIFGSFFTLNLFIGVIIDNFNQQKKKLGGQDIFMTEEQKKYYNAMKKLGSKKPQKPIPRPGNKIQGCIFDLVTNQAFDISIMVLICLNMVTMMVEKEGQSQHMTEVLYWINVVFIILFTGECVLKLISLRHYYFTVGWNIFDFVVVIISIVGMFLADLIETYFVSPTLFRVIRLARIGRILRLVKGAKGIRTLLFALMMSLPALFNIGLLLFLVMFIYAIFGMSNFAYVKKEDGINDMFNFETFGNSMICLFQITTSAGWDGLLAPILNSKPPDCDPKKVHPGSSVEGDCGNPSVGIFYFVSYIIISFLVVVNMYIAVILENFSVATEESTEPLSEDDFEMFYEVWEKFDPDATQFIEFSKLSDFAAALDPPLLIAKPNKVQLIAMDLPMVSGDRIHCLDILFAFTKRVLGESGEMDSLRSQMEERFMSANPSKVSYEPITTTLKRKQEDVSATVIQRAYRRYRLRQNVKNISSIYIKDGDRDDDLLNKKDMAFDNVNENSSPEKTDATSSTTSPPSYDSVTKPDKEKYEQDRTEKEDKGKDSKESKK

- potency of the block, inactivated state compared with resting state (NaV1.7; NaV1.7): approximately 220 fold
- IC50 (NaV1.7; inactivated state): 0.05 µM
- IC50 (NaV1.7; resting state): 11.3 µM
- Cmax ([1]; male, Göttingen, minipig, plasma, topical or ocular, 70 mg spiro-oxindole compound equivalents ointment/kg, 21 days repeated dermal dosing, read-out: mean maximum observed concentration [Cmax]): 11.7 ng/mL
- time post dose at which mean plasma concentrations were maximal ([1]; after last dose (Day 21)): 8 h
- apparent steady state achieved ([1]; repeated dermal dosing): between Days 14 and 21
- systemic exposure overall (in words) ([1]; repeated dermal dosing): low systemic exposure
- concentration in liver tissue, individual animals ([2]; G1 (#1-#3): 2% composition, 3.0 μL/cm^2 bid 17 days): 17.0 ng/g and 2.2 ng/g and 14.0 ng/g
- concentration in liver tissue, individual animals ([2]; G2 (#4-#6): 4% composition, 3.0 μL/cm^2 bid 17 days): 49.1 ng/g and 29.3 ng/g
- concentration in liver tissue, individual animals ([2]; G3 (#7-#9): 8% composition, 3.0 μL/cm^2 bid 17 days): 47.2 ng/g and 48.2 ng/g and 21.6 ng/g
- concentration in liver tissue, individual animals ([2]; G4 (#10-#12): 8% composition, 1.0 μL/cm^2 bid 17 days): 0.0 ng/g and 39.1 ng/g and 13.0 ng/g
- concentration in liver tissue, individual animals ([2]; G5 (#13-#15): 8% composition, 3.0 μL/cm^2 qd 17 days): 3.6 ng/g and 25.1 ng/g and 0.0 ng/g
SMILES: O=C1N(Cc2ccc(C(F)(F)F)o2)c2ccccc2[C@]12COc1cc3c(cc12)OCO3 [spiro-oxindole compound, (S)-1′-{[5-(trifluoromethyl)furan-2-yl]methyl}spiro[furo[2,3-f][1,3]benzodioxole-7,3′-indol]-2′(1′H)one]

Source: US20150216794A1, “METHODS OF TREATING PAIN ASSOCIATED WITH OSTEOARTHRITIS OF A JOINT WITH A TOPICAL FORMULATION OF A SPIRO-OXINDOLE COMPOUND” (IVAX International GmbH, priority 2014, published 2015)
